# Patent US20100234221A1, “USE OF TETRAMIC ACID DERIVATIVES WITH FERTILIZERS” (BAYER CROPSCIENCE AG, priority 2006, published 2010)
# What was measured:
# Aphis gossypii = experiment: Use Example A: field plots of cotton sprayed against Aphis gossypii; assay type: in vivo; conditions: cotton FM966LL field plots, I-4 44 g of a.i./ha, Dyne-amic 0.455 % (v/v), UAN 0.7 % (v/v) where added
# Method: In three replications, plots of a size of about 66 m^2 with cotton of the cultivar FM966LL are treated against Aphis gossypii. Here, the active compound I-4 (as 1500D formulation) is applied with a sprayer (High Clearance Sprayer, High Boy) at the stated application rates. The amount of water applied is about 150 l/ha. An adjuvant and/or a fertilizer (UAN=ammonium nitrate/urea solution with 28% by weight of nitrogen) are added to the spray liquor at the stated concentration. Here, it becomes evident that the composition according to the invention is equivalent to a composition comprising an adjuvant known to be efficient.
# [1] = test system: cotton aphids (Aphis gossypii); experiment: Example B-1: spray treatment of cotton plants heavily infested by cotton aphids; assay type: in vivo; conditions: AHL or NH4NO3 12.5 g/l, RME 1 g ai/l where added
# Method: To prepare a suitable product solution, 1 part by weight of formulated goods (for example an oil suspension OD 150 prepared according to known methods) is mixed with water to give the desired concentration. The desired fertilizer or penetrant is added in a defined amount and mixed in well.
# Cotton plants (Gossypium herbaceum) which are heavily infested by the cotton aphids (Aphis gossypii) are treated by spraying with the product solution at the desired concentration.
# After the desired period of time, the kill in % is determined. Here, 100% means that all aphids have been killed; 0% means that none of the aphids have been killed.
smiles,measurement,setting,value
CCOC(=O)OC1=C(c2cc(C)ccc2C)C(=O)N[C@]12CC[C@@H](OC)CC2 [Compound I-4],Effect (% Abbott) After 2 days,Aphis gossypii; after 2 days,66.7 % Abbott
same,Effect (% Abbott) After 5 days,Aphis gossypii; after 5 days,65.8 % Abbott
same,Effect (% Abbott) After 9 days,Aphis gossypii; after 9 days,13.9 % Abbott
same,Kill in % after 7d,[1]; I-4 0.96 g ai/ha,25%
same,Kill in % after 7d,[1]; I-4 4.8 g ai/ha,90%
